“Also recorded” adds a separate entry of the source.
Experiments:
TRPV1 (VR1) (h) = target: T1, TRPV1 (VR1) (h) (Homo sapiens, UniProt Q8NER1); assay: TRPV1 (VR1) (h) antagonist effect functional assay; format: cell-based; conditions: human recombinant CHO cells, read-out: % Inhibition of control agonist response, TRPV1 (antagonist effect)
T1 construct: host or cells: CHO
In short: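 Commercial Eurofins radioligand binding and functional panel: [3H]GABA agonist binding for GABAA, antagonist radioligand binding for GABA transporter, cell-based calcium flux antagonist assay for human Cav1.2. TRPV1 antagonism measured in human recombinant CHO cells at 100 µM as % inhibition of control agonist response.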

[1] = test system: ivPTZ seizure threshold in mice; assay: Timed ivPTZ seizure threshold test; format: in vivo; conditions: 50 mg/kg i.p., 0.5 h before test; for increase of threshold for generalized clonus with loss of righting reflex / increase of threshold for the first myoclonic twitch: vs control
Procedure: (§1) In studies assessing the acute effect of compounds 53 and 60 on the ivPTZ seizure threshold and neuromuscular strength, compounds 53 and 60 was suspended in a 1% solution of Tween 80 and administered i.p., at a dose of 10 mL/kg body weight. Each experimental group consisted of 9–12 animals (ivPTZ seizure threshold test) or 9−10 animals (grip strength test). The timed ivPTZ test was employed to evaluate the acute effect of compounds 53 and 60 on the seizure thresholds for (1) the first myoclonic twitch, (2) generalized clonic seizure with loss of righting reflex, and (3) forelimb tonus. The experimental procedure of the timed ivPTZ test was described in detail elsewhere. The acute effect of compounds 53 and 60 on neuromuscular strength was quantified using the grip-strength apparatus (BIOSEB, Chaville, France) according to the method that is described elsewhere. The results are depicted in Figure 2 (ivPTZ seizure threshold test, see Section 3 Results and Discussion) and Figure 3 (grip strength test, see Section 3 Results and Discussion).
The timed ivPTZ test was employed to further evaluate the effects of compounds 53 and 60 on seizure susceptibility in mice. The ivPTZ seizure test is an extremely sensitive method for assessing seizure thresholds in rodents. In this method, the threshold PTZ dose for several seizure endpoints was determined.
Figure 2 Acute effects of 53 and 60 on the threshold for the first myoclonic twitch (A), generalized clonus (B), and forelimb tonus (C) in the ivPTZ seizure threshold test in mice. Compounds 53 and 60 were administered i.p. 0.5 h before the seizure test. Control animals received vehicle only. Each experimental group consisted of 9–12 animals. Each bar represents the mean (mg/kg PTZ) + SEM. ** p < 0.01, *** p < 0.001, **** p < 0.0001 vs. the control group (Student’s t-test).

mice [2] = assay: Grip strength test (neuromuscular strength); format: in vivo; conditions: 50 mg/kg i.p., 0.5 h
Procedure: as §1
Figure 3 Acute effects of 53 and 60 on the neuromuscular strength in mice. Compounds 53 and 60 were administered i.p. 0.5 h before the seizure test. Control animals received vehicle only. Each experimental group consisted of 9–10 animals. Each bar represents the mean + SEM grip strengths in millinewtons per gram of mouse body weight (mN/g).

NMDA receptor = assay: NMDA binding (antagonist radioligand); conditions: 100 µM; rat cerebral cortex
Procedure: (§2) Binding/functional studies were carried out commercially in Eurofins Laboratories (Poitiers, France) and Eurofins Panlabs Discovery Services Taiwan, Ltd. (New Taipei City, Taiwan) using testing procedures that were reported previously (for details see Table S2).
(§3) Table S2. Radioligand binding and functional assays. […]
NMDA (antagonist radioligand) […]
(§4) TRPV1 (VR1) (h) (antagonist effect) […]
(§5) Assays were performed commercially in Eurofins Laboratories (Poitiers, France) or Eurofins Panlabs Discovery
(§6) Services Taiwan, Ltd. (New Taipei City, Taiwan). […]

[3] = Metabolic stability in human liver microsomes (HLMs); conditions: for remaining at 2 h: human, human liver microsomes; for Metabolic Pathway: metabolites after 120 min incubation with HLMs
GABAA ion channel = GABAA ion channel [3H]GABA binding (agonist radioligand); conditions: 100 µM; rat cerebral cortex
Procedure: as §2, §3
GABAA ion channel [3H]GABA (agonist radioligand) […]
as §4, §5, §6

hERG = target: T2, hERG (Homo sapiens, UniProt Q12809); assay: Potassium channel (hERG) binding; conditions: human recombinant HEK-293 cells expressing hERG, human recombinant HEK-293 cell, read-out: % Inhibition of Control Specific Binding, hERG
T2 construct: Eurofins
Procedure: as §2, §3
Potassium channel (hERG)
as §4, §5, §6

GABA transporter = GABA transporter binding (antagonist radioligand); conditions: 100 µM; rat cerebral cortex
Procedure: as §2, §3
GABA transporter (antagonist radioligand) […]
as §4, §5, §6

Na+ channel (site 2) = Na+ channel (site 2) radioligand binding; conditions: rat cerebral cortex
mice [4] = assay: Capsaicin-induced hypothermia model / core body temperature; format: in vivo; conditions: i.p. 15 min before capsaicin 5 mg/kg; compound 60 50 mg/kg, BCTC 20 mg/kg
Procedure: Capsaicin was dissolved in 1% DMSO and administered at a dose of 5 mg/kg at a time point 0 min. Compound 60 and BCTC (positive control) were suspended in 1% Tween 80 and administered 15 min before capsaicin (at time point -15 min). All compounds were injected i.p. at a constant volume of 10 mL/kg. Control animals received the respective vehicles (1% DMSO or 1% Tween 80). Changes in the rectal temperature were measured using an electronic thermometer (ThermoWorks, Alpine, UT, USA) by inserting the rectal probe to a depth of ~2 cm into the rectum of the mouse. The measurements were taken at −15, 0, 15, 30, 60, 90, 120, and 180 min. The differences in the rectal temperature from baseline (time -15 min for groups receiving compound 60 and BCTC in combination with vehicle or time 0 min for groups receiving vehicle and capsaicin or compound 60 and BCTC in combination with capsaicin) to the respective time point ΔT (°C) were then calculated and analyzed. The results are shown in Figure 4 (see Section 3 Results and Discussion).
Figure 4 Effects of compound 60 and BCTC alone (A) or in combination with capsaicin (B) on the core body temperature in mice. Capsaicin (CPS) was injected at 0 min, as indicated by the arrow. Compound 60 or BCTC were administered 15 min prior to CPS injection. The temperature was measured at −15, 0, 15, 30, 60, 90, 120, and 180 min. Since body temperature returned to control values 60 min after CPS injection, subsequent measurements are not shown. Control animals received vehicles (1% DMSO or 1% Tween 80). All the compounds were administered i.p. Each experimental group consisted of seven to eight animals. The data are presented as the mean differences (ΔT) in rectal temperature from baseline (time −15 for A and time 0 for B) to the respective time point. The data were analyzed with one-way ANOVA followed by Tukey’s post hoc test. ** p < 0.01, *** p < 0.001, **** p < 0.0001 vs. the control group; ^#### p < 0.0001 vs. the CPS-treated group.

T1 sequence (Q8NER1 whole entry): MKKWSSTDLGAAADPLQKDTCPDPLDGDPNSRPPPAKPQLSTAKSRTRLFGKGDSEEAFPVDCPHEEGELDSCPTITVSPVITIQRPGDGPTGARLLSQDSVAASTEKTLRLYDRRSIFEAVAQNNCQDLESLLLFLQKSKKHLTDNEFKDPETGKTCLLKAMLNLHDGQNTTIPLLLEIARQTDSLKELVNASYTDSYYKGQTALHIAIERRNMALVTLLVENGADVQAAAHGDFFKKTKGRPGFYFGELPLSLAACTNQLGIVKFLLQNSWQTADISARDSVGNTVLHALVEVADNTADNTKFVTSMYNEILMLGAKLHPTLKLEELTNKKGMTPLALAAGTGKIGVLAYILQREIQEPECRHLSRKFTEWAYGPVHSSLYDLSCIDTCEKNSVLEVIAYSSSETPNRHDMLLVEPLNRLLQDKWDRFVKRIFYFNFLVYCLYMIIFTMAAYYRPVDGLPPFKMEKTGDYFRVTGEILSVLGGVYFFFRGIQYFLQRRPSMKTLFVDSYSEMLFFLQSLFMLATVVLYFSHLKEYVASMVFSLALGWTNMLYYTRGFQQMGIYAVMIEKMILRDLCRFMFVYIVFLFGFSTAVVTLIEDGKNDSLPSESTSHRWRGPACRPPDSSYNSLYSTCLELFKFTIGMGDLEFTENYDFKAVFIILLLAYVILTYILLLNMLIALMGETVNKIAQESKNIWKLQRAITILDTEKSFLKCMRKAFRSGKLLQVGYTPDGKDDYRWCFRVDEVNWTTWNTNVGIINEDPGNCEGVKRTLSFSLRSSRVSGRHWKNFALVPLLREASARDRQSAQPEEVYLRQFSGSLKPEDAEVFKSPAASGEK
T2 sequence (Q12809 whole entry): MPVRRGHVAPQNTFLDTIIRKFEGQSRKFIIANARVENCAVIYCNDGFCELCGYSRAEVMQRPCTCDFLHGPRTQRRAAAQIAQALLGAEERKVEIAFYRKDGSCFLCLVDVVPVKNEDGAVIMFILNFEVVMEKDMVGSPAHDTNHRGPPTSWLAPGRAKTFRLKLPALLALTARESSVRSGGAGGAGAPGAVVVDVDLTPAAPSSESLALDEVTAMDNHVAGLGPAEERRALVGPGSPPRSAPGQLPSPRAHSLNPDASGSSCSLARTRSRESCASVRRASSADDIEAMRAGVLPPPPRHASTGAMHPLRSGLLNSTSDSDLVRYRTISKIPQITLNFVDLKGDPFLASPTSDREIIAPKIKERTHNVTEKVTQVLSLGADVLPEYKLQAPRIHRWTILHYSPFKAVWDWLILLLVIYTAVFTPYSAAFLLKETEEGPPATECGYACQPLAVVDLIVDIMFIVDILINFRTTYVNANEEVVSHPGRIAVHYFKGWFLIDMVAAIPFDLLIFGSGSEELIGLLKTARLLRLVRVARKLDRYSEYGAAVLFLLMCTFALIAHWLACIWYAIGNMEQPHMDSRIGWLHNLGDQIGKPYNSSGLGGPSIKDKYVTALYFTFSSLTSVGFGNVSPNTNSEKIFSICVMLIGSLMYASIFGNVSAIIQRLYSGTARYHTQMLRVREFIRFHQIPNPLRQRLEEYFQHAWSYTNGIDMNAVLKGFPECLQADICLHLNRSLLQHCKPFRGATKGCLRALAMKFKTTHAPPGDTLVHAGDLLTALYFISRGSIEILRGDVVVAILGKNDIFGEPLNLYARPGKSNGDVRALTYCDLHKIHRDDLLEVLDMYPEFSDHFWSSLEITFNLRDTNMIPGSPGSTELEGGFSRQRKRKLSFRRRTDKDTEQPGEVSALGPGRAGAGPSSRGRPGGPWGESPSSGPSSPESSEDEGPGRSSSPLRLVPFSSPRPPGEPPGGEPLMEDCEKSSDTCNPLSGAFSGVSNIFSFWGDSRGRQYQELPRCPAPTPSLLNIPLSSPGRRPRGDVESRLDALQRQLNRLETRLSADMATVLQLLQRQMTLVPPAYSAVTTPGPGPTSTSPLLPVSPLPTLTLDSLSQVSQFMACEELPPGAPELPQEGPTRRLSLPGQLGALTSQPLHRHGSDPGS

inhibition at 100 µM (TRPV1 (VR1) (h)) [%] | effect on neuromuscular strength (grip strength) (mice [2]) | % Inhibition of Control Specific Binding, NMDA (NMDA receptor) | remaining at 2 h [3] [%] | % Inhibition of Control Specific Binding, GABAA ion channel (GABAA ion channel) | melting point [°C] | % Inhibition of Control Specific Binding, GABA transporter (GABA transporter) | % Inhibition of Control Specific Binding, Na+ channel (site 2) (Na+ channel (site 2); 10 µM) | % Inhibition of Control Specific Binding, Na+ channel (site 2) (Na+ channel (site 2); 100 µM) [%] | SMILES | effect on threshold for forelimb tonus [1] | increase of threshold for generalized clonus with loss of righting reflex [1] | increase of threshold for the first myoclonic twitch [1] | Metabolic Pathway [3] | inhibition at 100 µM (hERG) [%] | effect on capsaicin-induced hypothermia (co-administration) (mice [4])
128 | did not significantly affect | 9.0 (100) % | 95.6 | −1.1 (100) % | 131.8 to 132.5 | 2.8 (100) % | 17.4% | 75.5 | CC(=O)NC(C(=O)N1CCN(c2cccc(C(F)(F)F)c2)CC1)c1ccccc1 (centres unmarked) [Compound 53, N-(2-oxo-1-phenyl-2-(4-(3-(trifluoromethyl)phenyl)piperazin-1-yl)ethyl)acetamide] | did not, however, produce any significant effect | ~ 40% | ~ 50% | hydroxylation | 24 | 
110 | did not significantly affect |  | 88.8 |  |  |  | 37.0 (10) % |  | CC(=O)NC(C(=O)N1CCN(c2cccc(OC(F)(F)F)c2)CC1)c1ccccc1 (centres unmarked) [Compound 60, N-(2-oxo-1-phenyl-2-(4-(3-(trifluoromethoxy)phenyl)piperazin-1-yl)ethyl)acetamide] | devoid of any significant effects | devoid of any significant effects | ~ 20% | hydroxylation; also recorded: dehydrogenation |  | did not affect the capsaicin-induced hypothermia

Source: publication PMC9221546, “New Phenylglycinamide Derivatives with Hybrid Structure as Candidates for New Broad-Spectrum Anticonvulsants” (Cells, 2022)
